{"source": "patent US6890887B2", "about": "“Synergistic herbicidal methods and compositions comprising dinitroaniline and imidazolinone compounds” (BASF Aktiengesellschaft, priority 1999, dated 2005)", "test_in_all_cases": "Preemergence field plot evaluation of percent weed control", "format_in_all_cases": "in vivo", "conditions_in_all_cases": "visual, 60 days after application", "key": {"Poa annua": {"tested_on": "Poa annua", "procedure": "(§1) In the following examples, synergism is determined by the Colby^1 method, i.e. the expected (or predicted) response of the combination is calculated by taking the product of the observed response for each individual component of the combination when applied alone divided by 100 and subtracting this value from the sum of the observed response for each component when applied alone. Synergism of the combination is then determined by comparing the observed response of the combination to the expected (or predicted) response as calculated from the observed response of each individual component alone.\n(§2) The foregoing is illustrated mathematically below, wherein a combination, C, is composed of component A plus component B and Obs. designates the observed response of the combination C. [formula]\n(§3) Formulations containing imazamox^1, pendimethalin^2 and an imazamox/pendimethalin combination^3 are diluted with water and applied preemergence at volumes of 200 L/ha to 400 L/ha to field plots to provide the rates shown in Table I. 60 days after application, the plots are visually evaluted for percent weed control. The results are summarized in Table I. If more than one plot is included in an evaluation, the results are averaged.\n(§4) ^1 BOLERO® 40 SL, an imazamox aqueous concentrate commercially available from American Cyanamid Company, Parsippany, N.J.\n(§5) ^2 STOMP® 400 SC, a pendimethalin suspension concentrate commercially available from American Cyanamid Company, Parsippany, N.J.\n(§6) ^3 An emulsifiable concentrate containing imazamox and pendimethalin."}, "Setaria verticilliata": {"tested_on": "Setaria verticilliata", "procedure": "as §1, §2, §3, §4, §5, §6"}, "Polygonum persicaria": {"tested_on": "Polygonum persicaria", "procedure": "as §1, §2, §3, §4, §5, §6"}}}
{"smiles": "COCc1cnc(C2=NC(C)(C(C)C)C(=O)N2)c(C(=O)O)c1", "note": "(stereo not drawn) [Imazamox, 2-(4-isopropyl-4-methyl-5-oxo-2-imidazolin-2-yl)-5-(methoxymethyl)nicotinic acid]", "values": [{"measurement": "% Weed Control Observed", "setting": "Poa annua; imazamox 75 g/ha alone", "value": 68, "unit": "%"}, {"measurement": "% Weed Control Observed", "setting": "Setaria verticilliata; imazamox 75 g/ha alone", "value": 45, "unit": "%"}, {"measurement": "% Weed Control Observed", "setting": "Polygonum persicaria; imazamox 75 g/ha alone", "value": 66, "unit": "%"}]}
{"smiles": "CCC(CC)Nc1c([N+](=O)[O-])cc(C)c(C)c1[N+](=O)[O-]", "note": "[Pendimethalin]", "values": [{"measurement": "% Weed Control Observed", "setting": "Poa annua; pendimethalin 1,125 g/ha alone", "value": 63, "unit": "%"}, {"measurement": "% Weed Control Observed", "setting": "Setaria verticilliata; pendimethalin 1,125 g/ha alone", "value": 86, "unit": "%"}, {"measurement": "% Weed Control Observed", "setting": "Polygonum persicaria; pendimethalin 1,125 g/ha alone", "value": 76, "unit": "%"}]}
